In series [1] the target is T1, CCK2R (Homo sapiens, UniProt P32239).
T1 sequence (P32239 1-447): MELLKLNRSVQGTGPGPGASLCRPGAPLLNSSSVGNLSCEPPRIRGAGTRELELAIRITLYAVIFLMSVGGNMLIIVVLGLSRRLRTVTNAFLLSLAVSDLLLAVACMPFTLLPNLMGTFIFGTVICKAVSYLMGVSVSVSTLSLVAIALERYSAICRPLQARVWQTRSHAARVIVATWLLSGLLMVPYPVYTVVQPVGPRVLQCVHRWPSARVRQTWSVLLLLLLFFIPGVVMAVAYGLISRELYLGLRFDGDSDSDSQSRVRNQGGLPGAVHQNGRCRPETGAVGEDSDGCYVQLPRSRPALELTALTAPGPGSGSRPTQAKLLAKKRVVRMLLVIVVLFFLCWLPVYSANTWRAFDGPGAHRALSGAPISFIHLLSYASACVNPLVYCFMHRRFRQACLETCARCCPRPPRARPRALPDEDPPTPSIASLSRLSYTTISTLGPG
As to the kind of experiment: Antagonist inhibition of agonist-induced CCK2R signaling (SRE-luciferase, HEK293). It is filed as cell-based. Details: expressed in transfected cells; host or cells: HEK293. How it is done:
Figure 6 YM022 inhibits CCK2R signaling induced by tethered CCK4-Gly, soluble CCK4-Gly, or lipidated CCK4-Gly. A) YM022 blocks tethered CCK4-Gly mediated CCK2R signaling. […] Four hours following transfection, cells were with treated with increasing concentrations of YM022 for 20 hours. […] B) YM022 blocks s-CCK4-Gly-COOH and l-CCK4-Gly-COOH mediated activation of CCK2R. HEK293 cells were transfected as indicated above. Twenty hours after transfection, cells were with treated with increasing concentrations of YM022 together with either 10 µM of l-CCK4-Gly-COOH or s-CCK4-Gly-COOH.

Another series concerns the target T2, CCK1R (Homo sapiens, UniProt P32238).
T2 sequence (P32238 1-428): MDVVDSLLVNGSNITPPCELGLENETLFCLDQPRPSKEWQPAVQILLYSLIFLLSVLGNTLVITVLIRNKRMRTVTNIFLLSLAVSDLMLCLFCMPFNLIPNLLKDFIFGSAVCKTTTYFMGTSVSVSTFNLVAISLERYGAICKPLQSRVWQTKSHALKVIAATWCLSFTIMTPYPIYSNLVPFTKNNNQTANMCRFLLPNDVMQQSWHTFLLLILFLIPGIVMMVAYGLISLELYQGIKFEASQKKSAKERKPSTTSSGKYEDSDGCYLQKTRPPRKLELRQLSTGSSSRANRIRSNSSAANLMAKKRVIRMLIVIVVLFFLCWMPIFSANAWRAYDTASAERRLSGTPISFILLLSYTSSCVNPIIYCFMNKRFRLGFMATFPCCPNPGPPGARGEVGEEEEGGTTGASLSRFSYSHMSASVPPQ
As to the kind of experiment: SRE-luciferase reporter agonist assay in HEK293 cells transfected with CCK1R. The settings on record: HEK293, SRE-Luc; relative to 10 µM s-CCK8-NH2; MTL coexpressed 24 hours, peptides 4 hours. (In general: In a reporter assay the amount or activity of a reporter protein is the signal.)

In series [2] the target is T1, CCK2R. In words: SRE-luciferase reporter agonist assay in HEK293 cells transfected with CCK2R. The settings on record: for CCK2R mediated signaling (agonist activity, in words): HEK293, SRE-Luc, relative to 10 µM s-CCK4-NH2, MTL coexpressed 24 hours, peptides 4 hours.
Protocol: (§1) Human embryonic kidney cells (HEK293) were maintained at 37°C in a humidified 5% CO2 atmosphere and cultured with Dulbecco’s modified Eagle’s medium (Invitrogen, Chicago, IL) containing 10% fetal bovine serum, 100 U/mL penicillin, and 100 µg/mL streptomycin. Cells were seeded into 96-well plates and grown to ∼80% confluence. Cells were transfected for 24 hours using polyethylenimine (Sigma, Atlanta, GA) in serum-free medium [17] with cDNAs encoding, a) tethered ligand (where noted), b) 3 ng of indicated receptor, c) 25 ng of a 5X-SRE-Luc-pest (pGL4.33), a luciferase reporter construct under the control of a serum response element (Promega, Madison, WI), and d) 10 ng of β-galactosidase to control for transfection efficiency.
The CCK2 receptor was cloned as previously reported [18]; the CCK1R cDNA was PCR amplified based on a published sequence [19]. Each receptor cDNA encoding the human sequence was subcloned into pcDNA1.1. […] The nucleotide sequences of all receptor and tethered ligand coding regions were confirmed by automated DNA sequencing and analyzed using Vector NTI software (Invitrogen, Chicago, IL). The expression of membrane tethered Substance P, CCK4, and CCK4-Gly was assessed by ELISA using an antibody directed to the myc epitope tag within the MTL cDNA construct [8].
(§2) Tethered ligand induced signaling was assessed in HEK293 cells 24 hours after transfection. For soluble and lipidated peptides, 20 hours following transfection, cells were stimulated in serum-free medium for an additional 4 hours. […] With tethered ligands, antagonists were added 4 hours after transfection; activity was assessed following an additional 20 hour incubation. Quantification of luciferase and β-galactosidase activities were performed as previously described [6]. Data were analyzed by nonlinear curve fitting using Graph Pad Prism 5.0 software.
HEK293 cells were transiently cotransfected with cDNAs encoding: the designated CCK receptor subtype, a 5X-SRE-Luc-pest reporter construct (pGL4.33), tethered ligand (as indicated) and a β-galactosidase gene to control for transfection efficiency. Tethered ligand activity was measured 24 hours following transfection. To assess activity of soluble and lipidated CCK4-Gly, cells were stimulated for an additional 4 hours with ligand. […] Data represent the mean ± SEM from 3 independent experiments, each performed in triplicate.
In series [3] the target is T3, NK1R (Homo sapiens, UniProt P25103).
T3 sequence (P25103 whole entry): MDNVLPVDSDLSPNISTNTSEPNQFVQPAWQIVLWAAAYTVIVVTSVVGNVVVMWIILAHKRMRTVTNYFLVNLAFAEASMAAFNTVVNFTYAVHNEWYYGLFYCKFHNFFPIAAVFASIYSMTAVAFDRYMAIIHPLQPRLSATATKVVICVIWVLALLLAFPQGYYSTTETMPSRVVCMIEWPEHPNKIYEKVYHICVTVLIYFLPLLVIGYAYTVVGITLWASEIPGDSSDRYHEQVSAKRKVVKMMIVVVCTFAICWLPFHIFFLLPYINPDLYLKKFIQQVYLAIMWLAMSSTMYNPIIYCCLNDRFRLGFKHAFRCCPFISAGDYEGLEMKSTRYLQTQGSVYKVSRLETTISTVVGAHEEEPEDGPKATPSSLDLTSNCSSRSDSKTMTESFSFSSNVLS
Protocol: as §1
(§3) The expression of membrane tethered Substance P, CCK4, and CCK4-Gly was assessed by ELISA using an antibody directed to the myc epitope tag within the MTL cDNA construct [8].
as §2
(§4) HEK293 cells were transiently cotransfected for 24 hours with cDNAs encoding: the designated NK receptor subtype, a 5X-SRE-Luc-pest reporter construct (pGL4.33), tethered ligand (for MTL assays, left panels), and a β-galactosidase gene to control for transfection variability. For assessment of SMAL induced signaling, cells were stimulated with ligand for an additional 4 hours. […] Data represent the mean ± SEM from 3 independent experiments, each performed in triplicate.
Series [4] addresses T3, NK1R. As to the kind of experiment: cell-based.
Protocol: as §1, §3, §2, §4
Another series addresses T4, NK3R (Homo sapiens, UniProt P29371).
T4 sequence (P29371 1-465): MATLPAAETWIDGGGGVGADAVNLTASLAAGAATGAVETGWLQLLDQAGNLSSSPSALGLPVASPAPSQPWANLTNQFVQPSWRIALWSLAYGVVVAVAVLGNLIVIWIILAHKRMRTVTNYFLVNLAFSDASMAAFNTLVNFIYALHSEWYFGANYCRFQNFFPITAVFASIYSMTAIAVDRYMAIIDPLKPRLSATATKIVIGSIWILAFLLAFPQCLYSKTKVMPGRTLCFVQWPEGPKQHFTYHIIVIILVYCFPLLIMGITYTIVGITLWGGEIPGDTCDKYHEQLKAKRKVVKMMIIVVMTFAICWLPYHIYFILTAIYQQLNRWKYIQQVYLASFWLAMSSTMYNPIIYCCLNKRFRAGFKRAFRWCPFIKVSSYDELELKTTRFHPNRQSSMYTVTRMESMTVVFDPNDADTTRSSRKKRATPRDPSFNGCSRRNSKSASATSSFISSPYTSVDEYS
In words: SRE-luciferase reporter agonist assay in HEK293 cells transfected with NK3R. The settings on record: HEK293, SRE-Luc; relative to 1 µM s-SubP-NH2; MTL coexpressed 24 hours, peptides 4 hours.

The next series concerns the target T5, NK2R (Homo sapiens, UniProt P21452).
T5 sequence (P21452 1-398): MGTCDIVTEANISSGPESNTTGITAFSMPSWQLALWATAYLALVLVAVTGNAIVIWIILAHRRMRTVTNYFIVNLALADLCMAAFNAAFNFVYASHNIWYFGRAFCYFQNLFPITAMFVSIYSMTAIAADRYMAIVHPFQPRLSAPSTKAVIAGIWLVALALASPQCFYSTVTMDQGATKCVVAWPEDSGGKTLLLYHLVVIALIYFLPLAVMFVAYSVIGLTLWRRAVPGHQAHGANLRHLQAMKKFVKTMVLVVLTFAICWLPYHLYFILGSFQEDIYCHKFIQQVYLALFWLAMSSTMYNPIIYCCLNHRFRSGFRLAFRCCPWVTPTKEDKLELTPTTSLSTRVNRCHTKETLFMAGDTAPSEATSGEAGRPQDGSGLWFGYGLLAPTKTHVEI
In words: SRE-luciferase reporter agonist assay in HEK293 cells transfected with NK2R. The settings on record: HEK293, SRE-Luc; relative to 1 µM s-SubP-NH2; MTL coexpressed 24 hours, peptides 4 hours.

Like-named read-outs stand apart in the source and are kept apart here. Ends that are not written are not given here. Peptide text beside a SMILES is read from it. * marks the point of attachment. PEG8 = NCCOCCOCCOCCOCCOCCOCCOCCOCCC(=O)O; Palmitoyl = CCCCCCCCCCCCCCCC(=O)*

This is an account of results in paper PMC4229100, “A Two-Step Strategy to Enhance Activity of Low Potency Peptides” (PLoS ONE, 2014).

Protocol for CCK1R: Human embryonic kidney cells (HEK293) were maintained at 37°C in a humidified 5% CO2 atmosphere and cultured with Dulbecco’s modified Eagle’s medium (Invitrogen, Chicago, IL) containing 10% fetal bovine serum, 100 U/mL penicillin, and 100 µg/mL streptomycin. Cells were seeded into 96-well plates and grown to ∼80% confluence. […]
The CCK2 receptor was cloned as previously reported [18]; the CCK1R cDNA was PCR amplified based on a published sequence [19]. […] The nucleotide sequences of all receptor and tethered ligand coding regions were confirmed by automated DNA sequencing and analyzed using Vector NTI software (Invitrogen, Chicago, IL). The expression of membrane tethered Substance P, CCK4, and CCK4-Gly was assessed by ELISA using an antibody directed to the myc epitope tag within the MTL cDNA construct [8].
(§5) Tethered ligand induced signaling was assessed in HEK293 cells 24 hours after transfection. […] With tethered ligands, antagonists were added 4 hours after transfection; activity was assessed following an additional 20 hour incubation. Quantification of luciferase and β-galactosidase activities were performed as previously described [6]. Data were analyzed by nonlinear curve fitting using Graph Pad Prism 5.0 software. […]
Protocol for NK2R: as §1, §3, §5
Protocol for NK3R: as §1, §3, §5

Regarding `Cc1cccc(NC(=O)N[C@@H]2N=C(c3ccccc3)c3ccccc3N(CC(=O)c3ccccc3C)C2=O)c1` [YM022, (R)-1-[2,3-dihydro-1-(2′-methylphenacyl)-2-oxo-5-phenyl-1H-1,4-benzodiazepin-3-yl]-3-(3-methylphenyl)urea], the IC50 is 10.2 nM at CCK2R [1] (agonist 10 µM l-CCK4-Gly-COOH, 4 hours, read-out: IC50 for inhibition of l-CCK4-Gly-COOH induced CCK2R signaling); 0.84 nM on CCK2R [1] (agonist 10 µM s-CCK4-Gly-COOH, 4 hours, read-out: IC50 for inhibition of s-CCK4-Gly-COOH induced CCK2R signaling); 0.54 nM on CCK2R [1] (agonist tCCK4-Gly (coexpressed MTL), antagonist added 4 hours after transfection for 20 hours, read-out: IC50 for inhibition of tCCK4-Gly induced CCK2R signaling).

On to `CCCCCCCCCCCCCCCC(=O)NCCOCCOCCOCCOCCOCCOCCOCCOCCC(=O)NCC(=O)NCC(=O)N[C@@H](Cc1c[nH]c2ccccc12)C(=O)N[C@@H](CCSC)C(=O)N[C@@H](CC(=O)O)C(=O)N[C@@H](Cc1ccccc1)C(=O)NCC(=O)O` [l-CCK4-Gly-COOH] ({Palmitoyl-PEG8}-GGWMDFG-OH), for which the “CCK1R mediated signaling (agonist activity, in words)” value on CCK1R is recorded as “lacked activity”. For the same compound, on CCK2R [2], the half-maximal effective concentration (EC50) was more than 1000 nM and the “CCK2R mediated signaling (agonist activity, in words)” value is reported as “activated”.

In the case of `CCCCCCCCCCCCCCCC(=O)NCCOCCOCCOCCOCCOCCOCCOCCOCCC(=O)NCC(=O)NCC(=O)N[C@@H](Cc1c[nH]c2ccccc12)C(=O)N[C@@H](CCSC)C(=O)N[C@@H](CC(=O)O)C(=O)N[C@@H](Cc1ccccc1)C(N)=O` [l-CCK4-NH2] ({Palmitoyl-PEG8}-GGWMDF-NH2), at CCK2R [2], the EC50 is 2.6 nM and the “CCK2R mediated signaling (agonist activity, in words)” value is recorded as “does not fully activate”.

For the compound `CCCCCCCCCCCCCCCC(=O)NCCOCCOCCOCCOCCOCCOCCOCCOCCC(=O)NCCCC[C@H](NC(C)=O)C(=O)NCC(=O)NCC(=O)N[C@@H](CCCNC(=N)N)C(=O)N1CCC[C@H]1C(=O)N[C@@H](CCCCN)C(=O)N1CCC[C@H]1C(=O)N[C@@H](CCC(N)=O)C(=O)N[C@@H](CCC(N)=O)C(=O)N[C@@H](Cc1ccccc1)C(=O)N[C@@H](Cc1ccccc1)C(=O)NCC(=O)N[C@@H](CC(C)C)C(=O)N[C@@H](CCSC)C(=O)O` [l-SubP-COOH], the “NK1R mediated signaling (agonist activity, in words)” value on NK1R [3] (HEK293, SRE-Luc, relative to 1 µM s-SubP-NH2, MTL coexpressed 24 hours, peptides 4 hours) is given as “activated”. Also, at NK1R [4], it took 6.1 nM to reach a half-maximal effect (EC50). The “NK3R mediated signaling (agonist activity, in words)” value at NK3R is listed as “activated”. On NK2R, the “NK2R mediated signaling (agonist activity, in words)” value is “no signaling was observed”.

As for `CCCCCCCCCCCCCCCC(=O)NCCOCCOCCOCCOCCOCCOCCOCCOCCC(=O)NCCCC[C@H](Nc1ccc([N+](=O)[O-])c2nonc12)C(=O)NCC(=O)NCC(=O)N[C@@H](CCCNC(=N)N)C(=O)N1CCC[C@H]1C(=O)N[C@@H](CCCCN)C(=O)N1CCC[C@H]1C(=O)N[C@@H](CCC(N)=O)C(=O)N[C@@H](CCC(N)=O)C(=O)N[C@@H](Cc1ccccc1)C(=O)N[C@@H](Cc1ccccc1)C(=O)NCC(=O)N[C@@H](CC(C)C)C(=O)N[C@@H](CCSC)C(N)=O` [l-SubP-NH2], on NK1R [3], the “NK1R mediated signaling (agonist activity, in words)” value is “fully active” and the “Potency at NK1R compared with soluble counterpart (in words)” value is “more potent than s-SubP-NH2”. The same compound displayed an EC50 at NK1R [4] of 0.4 nM.

As to WMDFG [s-CCK4-Gly-COOH], the half-maximal effective concentration (EC50) at CCK2R [2] was more than 1000 nM.

A word on the IC50: it is the midpoint of a concentration-inhibition curve. Broadly, the EC50 is the concentration needed to bring the measured effect to its halfway point. The low end stands for higher potency in that assay, the high end for lower potency in that assay.
